Measured values as given in ChEMBL document CHEMBL5465560, “Selectivity Literature for EUbOPEN Chemogenomic Library” (2024).
Values belong to the molecule of their own block, whether it stands above or below them.

Columns and labels:
[1] = target: Mitogen-activated protein kinase 8 (Homo sapiens, UniProt P45983); settings: at 10 µM
[2] = target: T1, Serine/threonine-protein kinase TBK1 (Homo sapiens) (UniProt Q9UHD2); test: Selectivity interaction (KinomeScan (DiscoverX)) EUB0000595a TBK1; settings: at 10 µM
T1 sequence (whole entry): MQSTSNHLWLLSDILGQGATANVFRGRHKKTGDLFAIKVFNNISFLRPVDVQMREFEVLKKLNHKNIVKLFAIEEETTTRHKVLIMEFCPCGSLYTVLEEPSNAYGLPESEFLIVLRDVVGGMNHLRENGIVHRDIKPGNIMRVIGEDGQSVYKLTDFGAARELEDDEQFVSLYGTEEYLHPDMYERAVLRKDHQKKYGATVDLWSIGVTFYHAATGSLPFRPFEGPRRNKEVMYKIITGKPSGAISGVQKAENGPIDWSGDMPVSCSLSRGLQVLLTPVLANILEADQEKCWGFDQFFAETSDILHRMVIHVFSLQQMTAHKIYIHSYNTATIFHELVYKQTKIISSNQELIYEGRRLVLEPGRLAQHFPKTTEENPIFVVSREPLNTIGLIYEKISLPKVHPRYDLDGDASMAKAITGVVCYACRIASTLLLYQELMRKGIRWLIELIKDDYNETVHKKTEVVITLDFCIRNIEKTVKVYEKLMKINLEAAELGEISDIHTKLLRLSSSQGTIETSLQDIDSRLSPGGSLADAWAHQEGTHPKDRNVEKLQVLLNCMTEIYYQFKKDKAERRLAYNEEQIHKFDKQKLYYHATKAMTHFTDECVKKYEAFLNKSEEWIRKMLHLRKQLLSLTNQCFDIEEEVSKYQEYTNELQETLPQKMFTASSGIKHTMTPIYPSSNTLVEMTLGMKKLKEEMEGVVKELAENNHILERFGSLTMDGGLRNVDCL

[3] = target: Proto-oncogene tyrosine-protein kinase Src (Homo sapiens, UniProt P12931); test: Selectivity interaction (KinomeScan (DiscoverX)) EUB0000655a SRC; settings: at 10 µM
Sequence of Proto-oncogene tyrosine-protein kinase Src (P12931 2-536 limits assumed): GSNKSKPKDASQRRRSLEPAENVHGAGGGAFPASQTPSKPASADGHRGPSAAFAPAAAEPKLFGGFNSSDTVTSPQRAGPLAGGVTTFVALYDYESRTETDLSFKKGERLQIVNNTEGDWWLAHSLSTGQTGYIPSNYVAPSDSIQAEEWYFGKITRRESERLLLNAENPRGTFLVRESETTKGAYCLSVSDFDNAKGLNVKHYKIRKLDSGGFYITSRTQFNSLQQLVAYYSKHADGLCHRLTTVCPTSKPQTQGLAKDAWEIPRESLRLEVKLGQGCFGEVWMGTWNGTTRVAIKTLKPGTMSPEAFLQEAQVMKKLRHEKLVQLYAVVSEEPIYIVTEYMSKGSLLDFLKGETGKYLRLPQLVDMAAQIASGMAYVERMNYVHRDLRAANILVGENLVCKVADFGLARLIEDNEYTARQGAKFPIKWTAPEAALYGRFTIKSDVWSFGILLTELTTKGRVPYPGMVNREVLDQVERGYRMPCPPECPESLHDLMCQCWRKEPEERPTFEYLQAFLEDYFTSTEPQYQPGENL

[4] = target: T2, Discoidin domain-containing receptor 2 (Homo sapiens) (UniProt Q16832); test: Selectivity interaction (KinomeScan (DiscoverX)) EUB0000045b DDR2
T2 sequence (whole entry): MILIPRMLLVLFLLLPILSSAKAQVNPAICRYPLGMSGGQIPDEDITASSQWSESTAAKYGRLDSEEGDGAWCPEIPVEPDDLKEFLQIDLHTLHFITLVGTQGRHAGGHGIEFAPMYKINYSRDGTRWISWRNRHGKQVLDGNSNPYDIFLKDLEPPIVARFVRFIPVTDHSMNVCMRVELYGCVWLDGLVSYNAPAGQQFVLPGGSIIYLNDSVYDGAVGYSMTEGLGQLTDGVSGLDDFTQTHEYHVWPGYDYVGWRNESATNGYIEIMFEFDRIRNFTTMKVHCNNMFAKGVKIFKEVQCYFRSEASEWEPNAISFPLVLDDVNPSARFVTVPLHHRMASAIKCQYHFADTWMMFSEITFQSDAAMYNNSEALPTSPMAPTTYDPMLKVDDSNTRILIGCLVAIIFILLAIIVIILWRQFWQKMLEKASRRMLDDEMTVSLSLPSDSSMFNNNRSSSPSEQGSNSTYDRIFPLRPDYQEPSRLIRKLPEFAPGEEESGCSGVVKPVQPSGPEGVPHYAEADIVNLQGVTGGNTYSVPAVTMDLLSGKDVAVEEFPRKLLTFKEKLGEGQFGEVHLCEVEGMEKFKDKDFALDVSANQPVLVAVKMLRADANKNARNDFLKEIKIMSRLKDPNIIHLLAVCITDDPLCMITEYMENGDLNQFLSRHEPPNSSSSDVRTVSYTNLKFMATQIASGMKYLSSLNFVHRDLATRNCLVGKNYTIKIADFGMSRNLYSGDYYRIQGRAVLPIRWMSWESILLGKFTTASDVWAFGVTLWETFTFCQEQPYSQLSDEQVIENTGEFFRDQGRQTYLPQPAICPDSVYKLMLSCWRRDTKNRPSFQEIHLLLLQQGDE

[5] = target: Protein arginine N-methyltransferase 3 (Homo sapiens, UniProt O60678); test: Selectivity interaction (Transferase panel (protein, RNA, and DNA methyltransferases. and EP300 (acetyltransferase))) EUB0000270b PRMT3
Sequence of Protein arginine N-methyltransferase 3 (O60678 2-531 limits assumed): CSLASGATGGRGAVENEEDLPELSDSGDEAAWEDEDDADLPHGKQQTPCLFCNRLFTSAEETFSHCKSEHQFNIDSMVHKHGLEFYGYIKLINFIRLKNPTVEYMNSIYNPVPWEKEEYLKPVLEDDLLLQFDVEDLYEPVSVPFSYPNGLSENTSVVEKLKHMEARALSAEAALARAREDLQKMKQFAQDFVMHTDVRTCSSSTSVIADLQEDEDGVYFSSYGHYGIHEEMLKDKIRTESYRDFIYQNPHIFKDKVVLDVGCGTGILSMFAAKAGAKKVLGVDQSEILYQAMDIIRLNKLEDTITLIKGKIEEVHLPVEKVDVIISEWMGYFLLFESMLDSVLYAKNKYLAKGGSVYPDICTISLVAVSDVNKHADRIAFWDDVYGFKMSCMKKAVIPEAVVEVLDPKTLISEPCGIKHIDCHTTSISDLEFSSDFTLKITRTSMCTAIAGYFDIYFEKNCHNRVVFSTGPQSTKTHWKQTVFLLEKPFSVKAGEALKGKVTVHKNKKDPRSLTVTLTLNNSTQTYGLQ

[6] = target: T3, Ephrin type-B receptor 6 (Homo sapiens) (UniProt O15197); test: Selectivity interaction (KinomeScan (DiscoverX)) EUB0000092b EPHB6; settings: at 10 µM
T3 sequence (whole entry): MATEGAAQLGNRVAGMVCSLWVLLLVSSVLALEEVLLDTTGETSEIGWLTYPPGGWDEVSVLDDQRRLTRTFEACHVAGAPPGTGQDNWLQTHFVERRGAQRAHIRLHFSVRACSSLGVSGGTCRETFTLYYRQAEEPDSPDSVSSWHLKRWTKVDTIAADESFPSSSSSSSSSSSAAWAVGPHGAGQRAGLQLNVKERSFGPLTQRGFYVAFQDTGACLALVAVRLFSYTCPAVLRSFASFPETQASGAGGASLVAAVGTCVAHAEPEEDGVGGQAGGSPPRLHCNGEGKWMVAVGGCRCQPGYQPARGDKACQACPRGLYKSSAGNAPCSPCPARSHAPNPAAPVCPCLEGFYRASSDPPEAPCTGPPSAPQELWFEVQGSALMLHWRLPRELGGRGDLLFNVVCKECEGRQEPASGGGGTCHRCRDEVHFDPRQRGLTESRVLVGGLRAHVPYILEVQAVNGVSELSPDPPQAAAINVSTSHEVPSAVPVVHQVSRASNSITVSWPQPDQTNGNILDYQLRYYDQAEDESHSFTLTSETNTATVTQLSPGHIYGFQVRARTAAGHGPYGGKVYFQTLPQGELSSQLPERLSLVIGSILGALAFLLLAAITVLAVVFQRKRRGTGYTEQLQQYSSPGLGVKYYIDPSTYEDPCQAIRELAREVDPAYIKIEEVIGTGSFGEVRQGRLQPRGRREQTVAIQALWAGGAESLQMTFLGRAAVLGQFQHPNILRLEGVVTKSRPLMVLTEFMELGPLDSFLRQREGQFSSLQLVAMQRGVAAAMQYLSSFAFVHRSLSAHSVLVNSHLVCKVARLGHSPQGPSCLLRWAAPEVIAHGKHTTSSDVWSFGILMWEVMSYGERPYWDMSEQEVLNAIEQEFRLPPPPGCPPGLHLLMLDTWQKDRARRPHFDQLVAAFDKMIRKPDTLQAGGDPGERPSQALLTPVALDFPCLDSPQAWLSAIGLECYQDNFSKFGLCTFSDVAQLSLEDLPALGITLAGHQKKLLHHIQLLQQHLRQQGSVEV

[7] = target: Serine/threonine-protein kinase PLK2 (Homo sapiens, UniProt Q9NYY3); test: Selectivity interaction (KinomeScan (DiscoverX)) EUB0001619a PLK2; settings: at 1 µM
Sequence of Serine/threonine-protein kinase PLK2 (Q9NYY3 whole entry, looked up): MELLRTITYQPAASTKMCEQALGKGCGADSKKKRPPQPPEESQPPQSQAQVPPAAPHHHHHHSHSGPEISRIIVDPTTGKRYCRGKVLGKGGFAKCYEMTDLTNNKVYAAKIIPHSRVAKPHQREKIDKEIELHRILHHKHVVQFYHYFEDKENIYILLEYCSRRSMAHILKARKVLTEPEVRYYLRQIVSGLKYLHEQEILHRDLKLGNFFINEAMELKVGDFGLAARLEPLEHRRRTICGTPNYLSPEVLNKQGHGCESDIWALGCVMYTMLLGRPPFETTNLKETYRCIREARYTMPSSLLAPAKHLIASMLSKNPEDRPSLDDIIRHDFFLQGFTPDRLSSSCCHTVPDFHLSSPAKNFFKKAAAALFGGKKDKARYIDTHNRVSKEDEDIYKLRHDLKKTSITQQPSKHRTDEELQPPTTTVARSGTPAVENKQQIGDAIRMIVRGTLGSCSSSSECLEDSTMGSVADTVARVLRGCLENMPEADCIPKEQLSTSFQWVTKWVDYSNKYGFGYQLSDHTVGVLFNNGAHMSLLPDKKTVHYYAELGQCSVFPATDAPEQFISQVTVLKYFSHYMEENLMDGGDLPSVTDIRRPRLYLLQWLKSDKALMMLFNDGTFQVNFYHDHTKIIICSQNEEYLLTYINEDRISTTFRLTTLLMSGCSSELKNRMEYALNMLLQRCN

Sequence of Mitogen-activated protein kinase 8 (P45983 whole entry): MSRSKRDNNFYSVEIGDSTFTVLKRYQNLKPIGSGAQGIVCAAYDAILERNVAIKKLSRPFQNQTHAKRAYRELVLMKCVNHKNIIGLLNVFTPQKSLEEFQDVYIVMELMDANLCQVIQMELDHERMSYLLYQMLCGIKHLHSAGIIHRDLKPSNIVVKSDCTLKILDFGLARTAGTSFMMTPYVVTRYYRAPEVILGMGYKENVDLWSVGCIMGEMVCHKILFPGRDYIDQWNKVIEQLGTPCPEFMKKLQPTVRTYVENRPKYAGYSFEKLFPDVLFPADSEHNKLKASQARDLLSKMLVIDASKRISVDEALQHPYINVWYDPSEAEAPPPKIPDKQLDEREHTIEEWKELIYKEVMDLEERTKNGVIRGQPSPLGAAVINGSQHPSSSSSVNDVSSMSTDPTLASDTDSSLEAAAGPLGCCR

% of control [1]: 100%
SMILES: CCN(CC)CCCCNc1ncc2cc(-c3cc(OC)cc(OC)c3)c(NC(=O)NC(C)(C)C)nc2n1

SMILES: COCC(=O)NC/C=C/c1ccc2ncnc(Nc3ccc(Oc4ccc(C)nc4)c(C)c3)c2c1 [CP-724714]
% of control [2]: 90%

SMILES: CN(C)CCOc1ccc(-c2nc(-c3ccncc3)c(-c3ccc4c(c3)CC/C4=N\O)[nH]2)cc1
% of control [3]: 77%

SMILES: C=CC(=O)Nc1cc(-n2c(=O)ccc3cnc4ccc(-c5ccc(NS(C)(=O)=O)cc5)cc4c32)ccc1C
% of control ([4]; at 1 µM): 100%
% of control ([4]; at 10 µM): 100%

% activity ([5]; at 1 µM): > 90%
% activity ([5]; at 10 µM): > 80%
SMILES: Cc1cc(CN)cc(C)c1-c1ncn(C)c1-c1cncn1C

SMILES: CCC(=O)N1CCN(c2ccc(-n3c(=O)ccc4cnc5ccc(-c6cnc7ccccc7c6)cc5c43)cc2C(F)(F)F)CC1
% of control [6]: 80%

SMILES: N#Cc1cccc(-c2c[nH]c3ncnc(N4CCOCC4)c23)c1
% of control [7]: 100%
